Measured values as given in patent US8143227B2, “Azithromycin for treatment of skin disorders” (priority 2008, dated 2012).
Values after ≈ are worked out from the molar mass of the structure shown. Like-named read-outs stand apart in the source and are kept apart here.

Tests used:
[1] = test system: moderate to severe facial acne vulgaris; experiment: Additional low dosage regimens, lesion counts; type: in vivo, human
Description: Five male subjects and five female subjects with moderate to severe facial acne vulgaris, having a mean age of 19.6 years, were treated either with 25 mg of oral azithromycin daily or with 80 mg of oral azithromycin every other day. Each of the ten subjects had acne nodules. The male subjects received the 25 mg per day regimen and the female subjects received the 80 mg every other day regimen. Treatment was continued for a duration of 6 weeks. The numbers of facial inflammatory lesions: papules, pustules, and nodules, and non-inflammatory lesions: open and closed comedones, were counted at the beginning of treatment and again after 3 weeks of treatment and after 6 weeks of treatment. Additionally, nodules were counted independently at each of these visits. Additionally, during the treatment study, each subject reported the occurrence of any adverse effects. The results of this study for the 25 mg/day regimen are shown in Table 7 and for the 80 mg every other day regiment in Table 8. In these tables, the numbers represent the mean number of lesions in the four subjects of each group. The % decrease from Day 0 was calculated as the mean of the differences for each of the parameters (inflammatory lesions, non-inflammatory lesion and nodules) for each individual subject on Day 21 and Day 42.

acne = conditions: Kus 2005, cited from earlier work
[2] = Azithromycin levels in sebum (Sebutape patches); type: in vivo, human; conditions: for concentration at 42 day: human, sebum, oral
Description: Sebum was collected from the subjects of Example 1 by use of Sebutape® (CuDerm Corporation, Dallas Tex.). On study days 0, 21, 42, and 70, each subject placed three Sebutape® adhesive patches on each of the forehead, and left and right cheeks on the skin of the face and left the patches in place for 30 to 40 minutes. The patches were then removed, folded in half with the adhesive side inward, placed in a sealed glass vial, and frozen at −20° C. to −70° C. […] Each Sebutape® patch was analyzed for quantity in nanograms of azithromycin.

inflammatory acne = conditions: 250 mg three times per week, cited from earlier work
Staphylococcus aureus = conditions: Neu 1991; relative to P. acnes; cited from earlier work
P. acnes = conditions: concentration that inhibits 90% of growth of the organism; Neu 1991; cited from earlier work
[3] = 25 mg/day for 6 weeks, male subjects, Day 0 (beginning of treatment)
[4] = 25 mg/day for 6 weeks, male subjects, Day 21
[5] = 25 mg/day for 6 weeks, male subjects, Day 42
[6] = 80 mg every other day for 6 weeks, female subjects, Day 0 (beginning of treatment)
[7] = 80 mg every other day for 6 weeks, female subjects, Day 21
[8] = 80 mg every other day for 6 weeks, female subjects, Day 42

CC[C@H]1OC(=O)[C@H](C)[C@@H](O[C@H]2C[C@@](C)(OC)[C@@H](O)[C@H](C)O2)[C@H](C)[C@@H](O[C@@H]2O[C@H](C)C[C@H](N(C)C)[C@H]2O)[C@](C)(O)C[C@@H](C)CN(C)[C@H](C)[C@@H](O)[C@]1(C)O [Azithromycin, 9-deoxo-9a-aza-9a-methyl-9a-homoerythromycin A]
effectiveness in treating skin disorders such as acne in adults ([1]; 25 mg per day, daily): effective | Inflammatory lesions (mean number) [1, 3]: 37.4 | Nodules (mean number) [1, 3]: 3.0 | Non-inflammatory lesions (mean number) [1, 3]: 12.6 | Inflammatory lesions % Decrease from Day 0 [1, 4]: 38.0% | Inflammatory lesions (mean number) [1, 4]: 22.8 | Nodules % Decrease from Day 0 [1, 4]: 45.0% | Nodules (mean number) [1, 4]: 1.6 | Non-inflammatory lesions % Decrease from Day 0 [1, 4]: 18.8% | Non-inflammatory lesions (mean number) [1, 4]: 10.2 | Inflammatory lesions % Decrease from Day 0 [1, 5]: 41.0% | Inflammatory lesions (mean number) [1, 5]: 22.0 | Nodules % Decrease from Day 0 [1, 5]: 58.3% | Nodules (mean number) [1, 5]: 1.2 | Non-inflammatory lesions % Decrease from Day 0 [1, 5]: 34.3% | Non-inflammatory lesions (mean number) [1, 5]: 8.4 | effectiveness in treating skin disorders such as acne ([1]; 80 mg every other day): effective | Inflammatory lesions (mean number) [1, 6]: 24.4 | Nodules (mean number) [1, 6]: 3.8 | Non-inflammatory lesions (mean number) [1, 6]: 48.6 | Inflammatory lesions % Decrease from Day 0 [1, 7]: 34.0% | Inflammatory lesions (mean number) [1, 7]: 16.0 | Nodules % Decrease from Day 0 [1, 7]: 76.0% | Nodules (mean number) [1, 7]: 1.0 | Non-inflammatory lesions % Decrease from Day 0 [1, 7]: 18.5% | Non-inflammatory lesions (mean number) [1, 7]: 41.2 | Inflammatory lesions % Decrease from Day 0 [1, 8]: 15.5% | Inflammatory lesions (mean number) [1, 8]: 20.4 | Nodules % Decrease from Day 0 [1, 8]: 58.0% | Nodules (mean number) [1, 8]: 1.8 | Non-inflammatory lesions % Decrease from Day 0 [1, 8]: 30.1% | Non-inflammatory lesions (mean number) [1, 8]: 31.6 | efficacy in the treatment of acne (acne; 500 mg 3, then 2 consecutive days per week, then once weekly, 4 weeks each): as effective as doxycycline | subjects who left the study due to gastrointestinal side effects (acne; of 25 subjects administered azithromycin): two | Sebum Concentration (median) ng per sample ([2]; 40 mg/day, Day 0): 0.00 ng per sample | Sebum Concentration (median) ([2]; 40 mg/day, Day 0, ng per sample divided by 1.38 mg): .00 ng/mg | Sebum Concentration (median) ([2]; 40 mg/day, Day 0, ng/mg times […]): .00 ng/µL | Sebum Concentration (median) ng per sample ([2]; 40 mg/day, Day 21): 0.00 ng per sample | Sebum Concentration (median) ([2]; 40 mg/day, Day 21, ng per sample divided by 1.38 mg): .00 ng/mg | Sebum Concentration (median) ([2]; 40 mg/day, Day 21, ng/mg times […]): .00 ng/µL | Sebum Concentration (median) ng per sample ([2]; 40 mg/day, Day 42): 0.19 ng per sample | Sebum Concentration (median) ([2]; 40 mg/day, Day 42, ng per sample divided by 1.38 mg): .14 ng/mg | Sebum Concentration (median) ([2]; 40 mg/day, Day 42, ng/mg times […]): .12 ng/µL | Sebum Concentration (median) ng per sample ([2]; 40 mg/day, Day 70 (28 days after last dose)): 0.00 ng per sample | Sebum Concentration (median) ([2]; 40 mg/day, Day 70, ng per sample divided by 1.38 mg): .00 ng/mg | Sebum Concentration (median) ([2]; 40 mg/day, Day 70, ng/mg times […]): .00 ng/µL | Sebum Concentration (median) ng per sample ([2]; 80 mg/day, Day 0): 0.00 ng per sample | Sebum Concentration (median) ([2]; 80 mg/day, Day 0, ng per sample divided by 1.38 mg): .00 ng/mg | Sebum Concentration (median) ([2]; 80 mg/day, Day 0, ng/mg times […]): .00 ng/µL | Sebum Concentration (median) ng per sample ([2]; 80 mg/day, Day 21): 0.79 ng per sample | Sebum Concentration (median) ([2]; 80 mg/day, Day 21, ng per sample divided by 1.38 mg): .57 ng/mg | Sebum Concentration (median) ([2]; 80 mg/day, Day 21, ng/mg times […]): .50 ng/µL | Sebum Concentration (median) ng per sample ([2]; 80 mg/day, Day 42): 0.84 ng per sample | Sebum Concentration (median) ([2]; 80 mg/day, Day 42, ng per sample divided by 1.38 mg): .61 ng/mg | Sebum Concentration (median) ([2]; 80 mg/day, Day 42, ng/mg times […]): .53 ng/µL | Sebum Concentration (median) ng per sample ([2]; 80 mg/day, Day 70 (28 days after last dose)): 0.00 ng per sample | Sebum Concentration (median) ([2]; 80 mg/day, Day 70, ng per sample divided by 1.38 mg): .00 ng/mg | Sebum Concentration (median) ([2]; 80 mg/day, Day 70, ng/mg times […]): .00 ng/µL | Sebum Concentration (median) ng per sample ([2]; 120 mg/day, Day 0): 0.00 ng per sample | Sebum Concentration (median) ([2]; 120 mg/day, Day 0, ng per sample divided by 1.38 mg): .00 ng/mg | Sebum Concentration (median) ([2]; 120 mg/day, Day 0, ng/mg times […]): .00 ng/µL | Sebum Concentration (median) ng per sample ([2]; 120 mg/day, Day 21): 0.76 ng per sample | Sebum Concentration (median) ([2]; 120 mg/day, Day 21, ng per sample divided by 1.38 mg): .55 ng/mg | Sebum Concentration (median) ([2]; 120 mg/day, Day 21, ng/mg times […]): .48 ng/µL | Sebum Concentration (median) ng per sample ([2]; 120 mg/day, Day 42): 0.88 ng per sample | Sebum Concentration (median) ng per sample ([2]; 120 mg/day, Day 42, listed as azithromycin): about 0.88 ng per sample | Sebum Concentration (median) ([2]; 120 mg/day, Day 42, ng per sample divided by 1.38 mg): .64 ng/mg | Sebum Concentration (median) ([2]; 120 mg/day, Day 42, ng/mg times […]): .55 ng/µL | Sebum Concentration (median) ng per sample ([2]; 120 mg/day, Day 70 (28 days after last dose)): 0.00 ng per sample | Sebum Concentration (median) ([2]; 120 mg/day, Day 70, ng per sample divided by 1.38 mg): .00 ng/mg | Sebum Concentration (median) ([2]; 120 mg/day, Day 70, ng/mg times […]): .00 ng/µL | concentration at 42 day ([2]; 120 mg/day, Day 42, ng per sample divided by 1.38 mg, read-out: Sebum Concentration (median) ng/mg): ~640 ng/g | concentration at 42 day ([2]; 120 mg/day, Day 42, ng/mg times 0.87 mg/μl, read-out: Sebum Concentration (median)): ~550 ng/mL | cases of gastrointestinal discomfort (inflammatory acne; 21 subjects): 3 cases | cases of vaginitis (inflammatory acne; 21 subjects): one | subjects who experienced side effects (inflammatory acne; 21 subjects): 19% | efficacy in treating lesions of inflammatory acne (inflammatory acne; Fernandez-Obregon 2000): as effective as other antibiotics tested | MIC against Staphylococcus aureus (Staphylococcus aureus): higher than that for P. acnes | MIC against P. acnes (P. acnes): 0.15 µg/mL (≈ 0.2 µM)
